This is an account of results in article PMC10031466, “The ROK kinase N-acetylglucosamine kinase uses a sequential random enzyme mechanism with successive conformational changes upon each substrate binding” (The Journal of Biological Chemistry, 2023).

For assay [1], the target named is T1, N-acetylglucosamine kinase (PsNagK) (Plesiomonas shigelloides, UniProt R8APY9).
T1 construct: gene nagK; His-SUMO tagged P. shigelloides NagK (crystallization)
T1 sequence (R8APY9 1-303): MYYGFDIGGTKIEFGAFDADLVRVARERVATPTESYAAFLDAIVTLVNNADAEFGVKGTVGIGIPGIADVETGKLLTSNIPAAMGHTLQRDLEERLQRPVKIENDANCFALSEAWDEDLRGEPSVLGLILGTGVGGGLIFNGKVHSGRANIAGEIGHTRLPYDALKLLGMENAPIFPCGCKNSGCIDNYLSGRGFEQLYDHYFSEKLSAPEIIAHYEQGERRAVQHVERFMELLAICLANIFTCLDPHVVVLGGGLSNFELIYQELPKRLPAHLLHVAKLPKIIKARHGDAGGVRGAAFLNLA
The assay is described as follows: crystal structure; isothermal differential scanning fluorimetry. It is filed as binding.

The target in assay [2] is T1, N-acetylglucosamine kinase (PsNagK). In words: crystal structures (binary 7PA1; ternary with GlcNAc 7P9P); isothermal differential scanning fluorimetry. It is filed as binding. In general terms: DSF heats the sample and reads unfolding from a dye or from intrinsic fluorescence.

`CC(=O)N[C@@H]1[C@@H](O)[C@H](O)[C@@H](CO)O[C@@H]1O` [GlcNAc, N-acetyl-D-glucosamine]: in assay [1], the Kd (in general, the free concentration of one partner at which half of the binding sites on the other are occupied at equilibrium, for simple one-to-one binding) came out at 0.23 ± 0.02 mM.
`Nc1ncnc2c1ncn2[C@@H]1O[C@H](COP(=O)(O)OP(=O)(O)NP(=O)(O)O)[C@@H](O)[C@H]1O` [AMP-PNP] displayed a Kd in assay [2] of 2.2 ± 0.6 mM.
